Laboratory results reported in ChEMBL document CHEMBL1201862, “PubChem BioAssay data set” (2004).
Active and inactive are the calls of the source.

Tests used:
[1] = biological target: Intestinal-type alkaline phosphatase (Mus musculus, UniProt P24822); assay: PubChem AID 488874; type: functional
[2] = biological target: T1, Intestinal-type alkaline phosphatase (Homo sapiens, UniProt P09923); assay: human IAP inhibitors, dose response, biochemical, luminescent, uHTS hits, set 2 (AID 488793); type: functional
T1 sequence (P09923 whole entry): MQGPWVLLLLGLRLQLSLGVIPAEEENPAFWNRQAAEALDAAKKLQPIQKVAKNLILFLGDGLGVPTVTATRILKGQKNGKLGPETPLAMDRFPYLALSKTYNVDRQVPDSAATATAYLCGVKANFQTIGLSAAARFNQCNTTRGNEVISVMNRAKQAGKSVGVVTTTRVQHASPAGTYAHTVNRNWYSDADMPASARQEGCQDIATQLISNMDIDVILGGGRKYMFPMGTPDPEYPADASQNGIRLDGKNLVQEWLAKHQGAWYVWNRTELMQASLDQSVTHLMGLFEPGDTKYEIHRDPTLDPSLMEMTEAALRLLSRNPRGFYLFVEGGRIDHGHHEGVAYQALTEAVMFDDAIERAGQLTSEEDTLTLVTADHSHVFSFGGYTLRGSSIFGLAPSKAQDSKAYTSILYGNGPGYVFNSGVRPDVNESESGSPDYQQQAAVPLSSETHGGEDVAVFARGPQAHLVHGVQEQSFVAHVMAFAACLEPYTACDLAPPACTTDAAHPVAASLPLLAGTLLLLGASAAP

[3] = biological target: T1, Intestinal-type alkaline phosphatase; assay: Dose Response confirmation of uHTS hits from a small molecule inhibitors of human intestinal alkaline phosphatase via a luminescent assay. [Related pubchem assays (depositor defined):AID2544, AID2574]; type: functional
[4] = biological target: T2, Alkaline phosphatase, tissue-nonspecific isozyme (Homo sapiens, UniProt P05186); assay: inhibition of tissue-nonspecific alkaline phosphatase – biochemical, dose response (AID 488882); type: functional
T2 sequence (P05186 whole entry): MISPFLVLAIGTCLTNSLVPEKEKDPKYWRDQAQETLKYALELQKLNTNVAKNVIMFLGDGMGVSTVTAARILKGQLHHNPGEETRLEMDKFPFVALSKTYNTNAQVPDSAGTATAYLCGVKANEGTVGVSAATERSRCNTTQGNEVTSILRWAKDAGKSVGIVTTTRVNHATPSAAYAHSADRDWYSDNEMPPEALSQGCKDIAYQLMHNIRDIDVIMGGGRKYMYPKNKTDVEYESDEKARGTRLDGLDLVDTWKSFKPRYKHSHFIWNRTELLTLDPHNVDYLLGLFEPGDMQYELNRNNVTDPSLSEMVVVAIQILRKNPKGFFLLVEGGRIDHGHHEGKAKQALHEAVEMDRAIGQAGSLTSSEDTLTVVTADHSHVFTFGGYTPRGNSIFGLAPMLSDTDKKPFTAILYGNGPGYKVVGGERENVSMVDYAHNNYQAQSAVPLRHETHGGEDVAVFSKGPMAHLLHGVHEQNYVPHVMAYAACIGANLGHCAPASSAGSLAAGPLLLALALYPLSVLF

Trypsin = Trypsin (Sus scrofa, UniProt P00761); assay: porcine trypsin inhibitors, dose response, selectivity assay for Rce1 protease inhibitor project, biochemical, quenched peptide fluorescence, cherry-pick (AID 488789)
CAAX prenyl protease 1 = CAAX prenyl protease 1 (Saccharomyces cerevisiae S288c, UniProt P47154); assay: Ste24 protease inhibitors, dose response, biochemical, S. cerevisiae, plate reader, cherry-pick (AID 488815)
CAAX prenyl protease 2 = CAAX prenyl protease 2 (Homo sapiens, UniProt Q9Y256); assay: human Rce1 protease inhibitors, dose response, biochemical, yeast membranes, quenched-peptide fluorescence, cherry-pick (AID 588849)
Trypanosoma cruzi = assay: growth inhibition of intracellular Trypanosoma cruzi, dose response, cell-based, plate reader, dry powder, set 3 (AID 493197); type: functional
[5] = inhibitors of Trypanosoma cruzi host-cell infection, confirmation, beta-gal luminescence, NIH3T3 host cells (AID 2630); type: functional, cell-based; settings: Mus musculus
[6] = NIH-3T3 fibroblast cytotoxicity, dose response, cytotoxicity control, cell-based, fluorescence, Alamar Blue, secondary assay (AID 2327); type: functional;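 note: NIH-3T3 mouse fibroblasts cultured with fluconazole at 8 µg/mL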
[7] = C. albicans growth with fluconazole, confirmation, fluorescence, retest (AID 2467); type: functional, cell-based
Exodeoxyribonuclease V = Exodeoxyribonuclease V (Escherichia coli (strain K12), UniProt P04993+P07648+P08394); assay: E. coli RecBCD inhibitors, dose response, counter-screen for AddAB inhibitor project, absorbance, V66 E. coli, mutant T4 phage (AID 492957); type: functional, cell-based, Escherichia coli str. K-12 substr. MG1655
Sequence of Exodeoxyribonuclease V (P04993 whole entry): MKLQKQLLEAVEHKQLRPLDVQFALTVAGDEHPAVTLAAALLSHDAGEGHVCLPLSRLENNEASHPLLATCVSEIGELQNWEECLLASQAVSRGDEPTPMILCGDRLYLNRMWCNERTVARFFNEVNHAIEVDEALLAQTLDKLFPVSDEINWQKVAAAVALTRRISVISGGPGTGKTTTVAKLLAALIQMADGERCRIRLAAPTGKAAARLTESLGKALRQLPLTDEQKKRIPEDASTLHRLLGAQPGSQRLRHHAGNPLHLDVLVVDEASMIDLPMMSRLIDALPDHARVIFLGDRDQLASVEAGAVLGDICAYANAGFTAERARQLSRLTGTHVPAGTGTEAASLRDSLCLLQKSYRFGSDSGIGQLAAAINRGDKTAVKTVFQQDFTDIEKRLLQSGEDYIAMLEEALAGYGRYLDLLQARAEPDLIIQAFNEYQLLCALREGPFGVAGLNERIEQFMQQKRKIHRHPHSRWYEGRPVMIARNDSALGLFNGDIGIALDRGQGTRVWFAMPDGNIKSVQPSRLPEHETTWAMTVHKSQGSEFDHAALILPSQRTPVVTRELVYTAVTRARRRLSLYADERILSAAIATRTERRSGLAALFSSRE
Sequence of Exodeoxyribonuclease V (P07648 whole entry): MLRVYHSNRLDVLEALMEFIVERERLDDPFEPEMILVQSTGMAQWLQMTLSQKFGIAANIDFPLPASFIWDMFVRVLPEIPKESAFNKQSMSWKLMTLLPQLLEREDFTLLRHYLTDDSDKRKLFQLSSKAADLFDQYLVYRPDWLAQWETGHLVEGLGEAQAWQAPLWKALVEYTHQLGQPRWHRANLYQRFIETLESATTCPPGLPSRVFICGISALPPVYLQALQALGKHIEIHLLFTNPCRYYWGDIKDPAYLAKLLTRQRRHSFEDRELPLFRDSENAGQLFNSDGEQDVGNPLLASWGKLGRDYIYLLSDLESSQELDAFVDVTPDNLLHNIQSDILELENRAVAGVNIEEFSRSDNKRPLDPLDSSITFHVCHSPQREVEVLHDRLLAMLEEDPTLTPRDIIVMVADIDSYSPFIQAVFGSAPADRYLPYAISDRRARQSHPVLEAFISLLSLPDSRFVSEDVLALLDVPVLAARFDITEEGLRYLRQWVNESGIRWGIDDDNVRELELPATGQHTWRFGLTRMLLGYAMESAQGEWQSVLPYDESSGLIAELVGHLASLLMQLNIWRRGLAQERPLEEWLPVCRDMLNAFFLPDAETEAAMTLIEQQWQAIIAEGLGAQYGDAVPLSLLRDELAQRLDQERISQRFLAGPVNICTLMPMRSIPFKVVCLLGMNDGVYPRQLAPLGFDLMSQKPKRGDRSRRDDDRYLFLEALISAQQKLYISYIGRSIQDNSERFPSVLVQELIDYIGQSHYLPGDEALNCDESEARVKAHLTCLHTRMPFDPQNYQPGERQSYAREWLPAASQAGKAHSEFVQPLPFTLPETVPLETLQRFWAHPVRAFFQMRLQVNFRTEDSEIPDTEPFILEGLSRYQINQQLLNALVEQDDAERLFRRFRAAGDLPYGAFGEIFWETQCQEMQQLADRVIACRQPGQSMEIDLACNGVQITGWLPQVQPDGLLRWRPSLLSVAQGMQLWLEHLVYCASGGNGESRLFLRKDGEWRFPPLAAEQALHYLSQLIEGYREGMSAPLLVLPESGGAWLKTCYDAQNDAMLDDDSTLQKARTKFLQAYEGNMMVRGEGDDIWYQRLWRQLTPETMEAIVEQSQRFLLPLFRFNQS
Sequence of Exodeoxyribonuclease V (P08394 whole entry): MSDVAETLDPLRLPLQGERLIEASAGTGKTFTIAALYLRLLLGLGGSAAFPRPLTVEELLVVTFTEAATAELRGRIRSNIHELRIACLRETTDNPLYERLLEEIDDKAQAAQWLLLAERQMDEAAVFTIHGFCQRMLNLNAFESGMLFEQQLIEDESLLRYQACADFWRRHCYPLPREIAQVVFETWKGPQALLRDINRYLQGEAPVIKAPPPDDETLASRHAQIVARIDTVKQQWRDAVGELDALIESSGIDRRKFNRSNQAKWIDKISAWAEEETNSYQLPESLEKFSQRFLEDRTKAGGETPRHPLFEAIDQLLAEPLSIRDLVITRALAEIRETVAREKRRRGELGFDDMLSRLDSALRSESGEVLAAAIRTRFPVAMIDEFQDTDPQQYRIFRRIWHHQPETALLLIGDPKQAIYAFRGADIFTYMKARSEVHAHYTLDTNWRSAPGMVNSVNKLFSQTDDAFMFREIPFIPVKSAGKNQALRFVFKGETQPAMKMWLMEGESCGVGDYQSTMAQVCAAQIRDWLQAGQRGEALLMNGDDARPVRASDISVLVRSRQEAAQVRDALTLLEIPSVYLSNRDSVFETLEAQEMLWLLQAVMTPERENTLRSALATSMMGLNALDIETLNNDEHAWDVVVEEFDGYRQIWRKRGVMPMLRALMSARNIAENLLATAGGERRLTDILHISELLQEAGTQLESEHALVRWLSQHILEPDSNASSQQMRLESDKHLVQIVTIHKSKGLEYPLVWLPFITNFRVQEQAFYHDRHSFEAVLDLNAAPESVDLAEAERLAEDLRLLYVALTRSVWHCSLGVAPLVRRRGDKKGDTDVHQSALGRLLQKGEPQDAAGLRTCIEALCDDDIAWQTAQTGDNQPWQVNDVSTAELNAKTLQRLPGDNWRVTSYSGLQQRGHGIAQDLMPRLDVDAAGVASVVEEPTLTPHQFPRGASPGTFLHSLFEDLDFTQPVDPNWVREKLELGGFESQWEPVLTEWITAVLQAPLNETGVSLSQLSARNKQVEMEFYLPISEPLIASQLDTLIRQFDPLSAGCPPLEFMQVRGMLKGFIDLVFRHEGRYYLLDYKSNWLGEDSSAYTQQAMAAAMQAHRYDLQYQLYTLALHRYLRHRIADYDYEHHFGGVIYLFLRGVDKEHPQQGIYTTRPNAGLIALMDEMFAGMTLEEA

[8] = Counterscreen for AddAB inhibitors: absorbance-based bacterial cell-based high throughput dose response assay for inhibitors of bacterial viability. [Related pubchem assays (depositor defined):AID435030, AID449728, AID449731, AID488942, AID488955, AID488956]; type: functional
Vero = assay: cells; type: functional; settings: Chlorocebus sabaeus
[9] = human group III sPLA2 inhibitors, dose response, biochemical, QFRET, IC50 (AID 743457);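 note: green fluorescence rise as the enzyme cleaves BODIPY PC-A2 in liposomes; potency for inhibition of the enzyme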
[10] = biological target: T3, Tyrosine-protein phosphatase non-receptor type 7 (Homo sapiens, UniProt P35236); type: functional
T3 sequence (P35236 whole entry): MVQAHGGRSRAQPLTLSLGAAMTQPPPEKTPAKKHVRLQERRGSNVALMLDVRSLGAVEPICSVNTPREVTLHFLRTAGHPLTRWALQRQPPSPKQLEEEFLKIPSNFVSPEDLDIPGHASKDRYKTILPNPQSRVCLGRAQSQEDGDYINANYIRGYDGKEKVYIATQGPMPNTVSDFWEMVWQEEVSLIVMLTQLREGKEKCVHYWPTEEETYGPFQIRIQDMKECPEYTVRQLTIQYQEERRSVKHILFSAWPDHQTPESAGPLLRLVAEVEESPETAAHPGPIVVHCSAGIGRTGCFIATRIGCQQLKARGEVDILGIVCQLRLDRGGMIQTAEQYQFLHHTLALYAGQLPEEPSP

[11] = biological target: T4, Tyrosine-protein phosphatase non-receptor type 22 (Homo sapiens, UniProt Q9Y2R2); type: functional
T4 sequence (Q9Y2R2 whole entry): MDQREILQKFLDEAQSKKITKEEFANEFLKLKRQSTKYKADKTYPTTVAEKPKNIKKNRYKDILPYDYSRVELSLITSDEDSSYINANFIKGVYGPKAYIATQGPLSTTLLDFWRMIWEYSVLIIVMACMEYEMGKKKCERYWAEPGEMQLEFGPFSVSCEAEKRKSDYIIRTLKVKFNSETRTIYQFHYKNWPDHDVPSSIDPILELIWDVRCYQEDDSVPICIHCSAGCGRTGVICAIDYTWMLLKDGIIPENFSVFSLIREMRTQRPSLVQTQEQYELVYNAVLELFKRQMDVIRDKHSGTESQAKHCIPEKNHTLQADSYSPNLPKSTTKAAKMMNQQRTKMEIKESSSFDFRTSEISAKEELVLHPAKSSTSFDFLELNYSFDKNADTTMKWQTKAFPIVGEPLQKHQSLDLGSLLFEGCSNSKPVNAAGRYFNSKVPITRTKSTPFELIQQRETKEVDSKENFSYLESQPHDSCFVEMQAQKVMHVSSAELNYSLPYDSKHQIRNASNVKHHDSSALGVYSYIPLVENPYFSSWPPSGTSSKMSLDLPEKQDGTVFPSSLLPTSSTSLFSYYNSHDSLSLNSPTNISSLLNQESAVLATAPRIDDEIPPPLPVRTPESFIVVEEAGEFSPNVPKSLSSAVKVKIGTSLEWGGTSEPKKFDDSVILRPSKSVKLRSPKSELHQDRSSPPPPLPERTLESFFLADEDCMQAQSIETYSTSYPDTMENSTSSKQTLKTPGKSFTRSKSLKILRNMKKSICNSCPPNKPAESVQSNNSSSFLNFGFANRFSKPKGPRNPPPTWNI

[12] = biological target: T4, Tyrosine-protein phosphatase non-receptor type 22; type: functional; remark: listed apart in the source
[13] = Luminescence Cell-Based Dose Retest to Confirm Inhibitors of Cancer Stem Cells. [Related pubchem assays (depositor defined):AID2717, AID2721]; type: functional; settings: Homo sapiens
[14] = cytotoxicity in HMLE control line with eGFP shRNA, dose response, counter-screen for HMLE_sh_ECad selective toxicity project, cell-based, HMLE_sh_eGFP, luminescence (AID 463074); type: functional, Homo sapiens;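 note: HMLE human mammary epithelial cells expressing control shRNA against eGFP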
[15] = insulin promoter down-regulators in MIN6 cells, imaging, high-content screening, mouse beta cells (AID 1628); type: functional
[16] = cytotoxicity in MIN6 insulinoma cells, dose response, cytotoxicity control, cell-based, mouse insulinoma (AID 2122); type: functional;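 note: confirmatory high-throughput counterscreen run to flag cytotoxic compounds; mouse MIN-6 beta cells carrying an insulin promoter eGFP reporter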
Tumor necrosis factor = Tumor necrosis factor (Homo sapiens, UniProt P01375); assay: TNFa-triggered NF-kB activation inhibitors, SAR follow-up, cell-based, revised (AID 2337); type: functional
[17] = biological target: Nucleotide-binding oligomerization domain-containing protein 1 (Homo sapiens, UniProt Q9Y239); assay: NOD1 signaling inhibitors, SAR follow-up, revised (AID 2333); type: functional
Sequence of Nucleotide-binding oligomerization domain-containing protein 1 (Q9Y239 whole entry, the tested form may be a part): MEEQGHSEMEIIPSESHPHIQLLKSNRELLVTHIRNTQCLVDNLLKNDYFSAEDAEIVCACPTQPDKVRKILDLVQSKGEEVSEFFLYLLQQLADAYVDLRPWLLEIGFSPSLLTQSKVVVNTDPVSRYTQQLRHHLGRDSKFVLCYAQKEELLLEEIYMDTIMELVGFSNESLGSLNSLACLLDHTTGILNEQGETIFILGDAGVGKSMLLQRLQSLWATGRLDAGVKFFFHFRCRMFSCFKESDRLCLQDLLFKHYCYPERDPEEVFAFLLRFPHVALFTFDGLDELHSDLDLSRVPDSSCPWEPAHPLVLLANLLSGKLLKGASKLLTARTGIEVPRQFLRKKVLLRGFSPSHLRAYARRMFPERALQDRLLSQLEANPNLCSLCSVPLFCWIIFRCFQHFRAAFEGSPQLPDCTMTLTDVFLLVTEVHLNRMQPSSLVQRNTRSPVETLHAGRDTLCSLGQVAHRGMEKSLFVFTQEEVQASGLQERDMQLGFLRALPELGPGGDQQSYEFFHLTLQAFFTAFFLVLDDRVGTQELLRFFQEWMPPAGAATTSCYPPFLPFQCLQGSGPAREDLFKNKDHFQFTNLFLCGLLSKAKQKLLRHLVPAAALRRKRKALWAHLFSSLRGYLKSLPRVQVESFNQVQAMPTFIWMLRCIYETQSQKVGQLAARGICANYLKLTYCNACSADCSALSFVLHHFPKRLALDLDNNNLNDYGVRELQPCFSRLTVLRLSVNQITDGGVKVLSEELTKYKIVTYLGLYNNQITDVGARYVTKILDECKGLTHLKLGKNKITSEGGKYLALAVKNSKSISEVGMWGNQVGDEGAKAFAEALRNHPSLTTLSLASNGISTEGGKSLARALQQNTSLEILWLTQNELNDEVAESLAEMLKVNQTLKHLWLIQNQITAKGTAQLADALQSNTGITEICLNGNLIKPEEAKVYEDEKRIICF

HEK293 = assay: cells; settings: Homo sapiens;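 note: cells exposed to compound for 14 hours overnight before viability readout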
[18] = biological target: Sphingosine 1-phosphate receptor 5 (Homo sapiens, UniProt Q9H228); assay: Late stage counterscreen assay for S1P4 antagonists: Fluorescence dose response cell-based screening assay for antagonists of the Sphingosine 1-Phosphate Receptor 5 (S1P5). [Related pubchem assays (depositor defined):AID1510, AID1524, AID1692, AID1853, AID2332, AID489009, AID489017]; type: functional
[19] = biological target: Sphingosine 1-phosphate receptor 3 (Homo sapiens, UniProt Q99500); assay: Late stage counterscreen assay for S1P4 antagonists: Fluorescence dose response cell-based screening assay for antagonists of the Sphingosine 1-Phosphate Receptor 3 (S1P3). [Related pubchem assays (depositor defined):AID1510, AID1524, AID1692, AID1853, AID2332, AID489009, AID489017]; type: functional
[20] = biological target: Sphingosine 1-phosphate receptor 1 (Homo sapiens, UniProt P21453); assay: Late stage counterscreen assay for S1P4 antagonists: Fluorescence dose response cell-based screening assay for antagonists of the Sphingosine 1-Phosphate Receptor 1 (S1P1). [Related pubchem assays (depositor defined):AID1510, AID1524, AID1692, AID1853, AID2332, AID489009, AID489017]; type: functional
[21] = biological target: Sphingosine 1-phosphate receptor 2 (Homo sapiens, UniProt O95136); assay: Late stage counterscreen assay for S1P4 antagonists: Fluorescence dose response cell-based screening assay for antagonists of the Sphingosine 1-Phosphate Receptor 2 (S1P2). [Related pubchem assays (depositor defined):AID1510, AID1524, AID1692, AID1853, AID2332, AID489009, AID489017]; type: functional

Sequence of Intestinal-type alkaline phosphatase (Mus musculus, UniProt P24822) (P24822 whole entry): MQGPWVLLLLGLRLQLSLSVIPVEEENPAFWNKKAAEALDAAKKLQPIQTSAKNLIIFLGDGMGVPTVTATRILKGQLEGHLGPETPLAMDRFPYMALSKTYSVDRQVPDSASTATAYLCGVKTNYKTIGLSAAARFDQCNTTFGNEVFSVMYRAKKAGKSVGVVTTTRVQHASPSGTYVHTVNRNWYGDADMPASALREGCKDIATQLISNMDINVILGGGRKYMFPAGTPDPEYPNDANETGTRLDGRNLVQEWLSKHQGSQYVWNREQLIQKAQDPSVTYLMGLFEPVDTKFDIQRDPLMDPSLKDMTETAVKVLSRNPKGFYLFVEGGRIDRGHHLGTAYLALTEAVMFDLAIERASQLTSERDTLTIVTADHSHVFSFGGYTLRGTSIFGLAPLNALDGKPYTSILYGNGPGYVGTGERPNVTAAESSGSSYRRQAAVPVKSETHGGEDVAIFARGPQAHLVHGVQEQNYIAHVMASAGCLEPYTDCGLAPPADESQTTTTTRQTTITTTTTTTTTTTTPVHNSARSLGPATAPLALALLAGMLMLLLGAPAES

SMILES: O=C(/C=C/c1ccccc1O)c1ccco1
- IC50 [1]: 62.9 µM (active)
- IC50 [2]: 75.8 µM (active)
- IC50 [3]: 47.6 µM (inactive)
- IC50 [4]: 71.8 µM (active)

SMILES: CCN(CC)CCn1c2ccccc2c2cnc(/N=C/N(C)C)c(C#N)c21
- AC50 (Trypsin): 18 µM (active)
- AC50 (CAAX prenyl protease 1): 4.5 µM (active)
- AC50 (CAAX prenyl protease 2): 11.4 µM (active)

SMILES: COc1ccc(CN2CCCC(C(=O)N3CCCC3)C2)c(OC)c1OC (centres undefined)
- AC50 (Trypanosoma cruzi): 1.01 µM (active)
- EC50 [5]: 0.042 µM (active)

SMILES: O=C(NC(=S)NNC(=O)c1cc2ccccc2cc1O)c1ccco1
- EC50 [6]: > 160 µM (inactive)
- EC50 [7]: 2.19 µM (active)
- IC50 (Exodeoxyribonuclease V): > 119 µM (inactive)
- IC50 [8]: > 119 µM (inactive)
- CC50 (Vero): 14.4 µM (active)
- IC50 [9]: > 40.6 µM (inactive)

SMILES: COc1ccc2c(OC)cc(=O)n(C)c2c1
- IC50 [10]: > 79.4 µM (inactive)
- IC50 [11]: > 79.4 µM (inactive)
- IC50 [12]: > 79.4 µM (inactive)

SMILES: Cc1ccc(-c2ccc(OC(=O)c3ccc(O)nc3)c(C)c2)cc1
- AC50 [13]: 17.5 µM (active)
- AC50 [14]: 29.1 µM (active)

SMILES: CCn1c(SCc2ccccc2)nnc1-c1cccs1
- IC50 [15]: 3.63 µM (active)
- IC50 [16]: 2.36 µM (active)

SMILES: COc1ccc(N2CCN(S(=O)(=O)c3ccc4c(c3)CC(C)N4C(C)=O)CC2)cc1 (centres undefined)
- IC50 (Tumor necrosis factor): 4.3 µM (active)
- IC50 [17]: 3.63 µM (active)
- IC50 (HEK293): > 20 µM (inactive)

SMILES: COc1cccc(OC)c1NC(=O)c1ccc(-c2cc(Cl)ccc2Cl)o1
- IC50 [18]: > 25 µM (inactive)
- IC50 [19]: 10.5 µM (inactive)
- IC50 [20]: > 25 µM (inactive)
- IC50 [21]: 20.7 µM (inactive)
